Measured values from PubChem BioAssay AID248 (DTP/NCI, 2004).
Values joined by “and” are separate entries in the source; they are usually repeats but may differ in a detail not shown here. Equal values may be shown once. Toxic doses and inconclusive results are not listed.

System: L1210 leukemia ip in BDF1 mice, survival T/C
Test: NCI In Vivo Anticancer Drug Screen. Data for tumor model L1210 Leukemia (intraperitoneal) in B6D2F1 (BDF1) mice
Conditions: endpoint: mean survival time, higher = longer survival
Outline: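 Tumor was transplanted into mice, which were then dosed with test compound or vehicle alone. Survival was recorded for each group, and the treated figure was expressed relative to the control figure.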

O=NN(CCCl)C(=O)NC1CC2CCC1C2 (centres undefined)
T/C (dose: 1.04 mg/kg/injection, schedule: Q#B X Z (ip), vehicle: other): 96 % of control | T/C (dose: 2.0 mg/kg/injection, schedule: Q01DX001 (ip), vehicle: carboxymethylcellulose (CMC)): 112 % of control | T/C (dose: 3.1 mg/kg/injection, schedule: Q01DX015 (ip), vehicle: other): 114 % of control | T/C (dose: 3.12 mg/kg/injection, schedule: Q03HX008 (oral), vehicle: carboxymethylcellulose (CMC)): 188 % of control | T/C (dose: 3.12 mg/kg/injection, schedule: Q03HX024 (oral), vehicle: carboxymethylcellulose (CMC)): 261 % of control | T/C (dose: 4.0 mg/kg/injection, schedule: Q01DX001 (ip), vehicle: carboxymethylcellulose (CMC)): 115 % of control | T/C (dose: 4.9 mg/kg/injection, schedule: Q01DX015 (ip), vehicle: other): 210 % of control | T/C (dose: 6.25 mg/kg/injection, schedule: Q01DX001 (im), vehicle: other): 112 % of control | T/C (dose: 6.25 mg/kg/injection, schedule: Q01DX001 (ip), vehicle: other): 109 % of control and 118 % of control | T/C (dose: 6.25 mg/kg/injection, schedule: Q01DX001 (ip), vehicle: saline): 98 % of control and 101 % of control | T/C (dose: 6.25 mg/kg/injection, schedule: Q01DX001 (iv), vehicle: other): 105 % of control | T/C (dose: 6.25 mg/kg/injection, schedule: Q01DX001 (oral), vehicle: other): 100 % of control | T/C (dose: 6.25 mg/kg/injection, schedule: Q01DX001 (sc), vehicle: other): 114 % of control | T/C (dose: 6.25 mg/kg/injection, schedule: Q03DX Z (ip), vehicle: other): 156 % of control | T/C (dose: 6.25 mg/kg/injection, schedule: Q03HX008 (oral), vehicle: carboxymethylcellulose (CMC)): 188 % of control | T/C (dose: 6.25 mg/kg/injection, schedule: Q07DX Z (ip), vehicle: other): 121 % of control | T/C (dose: 8.0 mg/kg/injection, schedule: Q01DX001 (ip), vehicle: carboxymethylcellulose (CMC)): 124 % of control | T/C (dose: 8.0 mg/kg/injection, schedule: Q01DX009 (ip), vehicle: carboxymethylcellulose (CMC)): 227 % of control | T/C (dose: 8.0 mg/kg/injection, schedule: Q01DX009 (oral), vehicle: carboxymethylcellulose (CMC)): 227 % of control | T/C (dose: 8.0 mg/kg/injection, schedule: Q04DX003 (ip), vehicle: carboxymethylcellulose (CMC)): 150 % of control | T/C (dose: 8.33 mg/kg/injection, schedule: Q#B X Z (ip), vehicle: other): 105 % of control | T/C (dose: 9.6 mg/kg/injection, schedule: Q## X032 (ip), vehicle: other): 150 % of control | T/C (dose: 12.0 mg/kg/injection, schedule: Q01DX001 (ip), vehicle: carboxymethylcellulose (CMC)): 124 % of control | T/C (dose: 12.5 mg/kg/injection, schedule: Q01DX001 (ip), vehicle: other): 150 % of control | T/C (dose: 12.5 mg/kg/injection, schedule: Q01DX001 (ip), vehicle: saline): 103 % of control and 106 % of control | T/C (dose: 12.5 mg/kg/injection, schedule: Q01DX001 (sc), vehicle: other): 151 % of control | T/C (dose: 12.5 mg/kg/injection, schedule: Q03DX Z (ip), vehicle: other): 235 % of control | T/C (dose: 12.5 mg/kg/injection, schedule: Q04DX003 (oral), vehicle: carboxymethylcellulose (CMC)): 177 % of control | T/C (dose: 12.5 mg/kg/injection, schedule: Q07DX Z (ip), vehicle: other): 179 % of control | T/C (dose: 14.5 mg/kg/injection, schedule: Q## X001 (ip), vehicle: other): 172 % of control | T/C (dose: 15.0 mg/kg/injection, schedule: Q## X032 (ip), vehicle: other): 158 % of control | T/C (dose: 16.0 mg/kg/injection, schedule: Q01DX001 (ip), vehicle: carboxymethylcellulose (CMC)): 179 % of control | T/C (dose: 16.0 mg/kg/injection, schedule: Q01DX015 (ip), vehicle: other): 261 % of control | T/C (dose: 16.0 mg/kg/injection, schedule: Q04DX003 (ip), vehicle: carboxymethylcellulose (CMC)): 193 % of control | T/C (dose: 25.0 mg/kg/injection, schedule: Q01DX001 (im), vehicle: other): 214 % of control | T/C (dose: 25.0 mg/kg/injection, schedule: Q01DX001 (ip), vehicle: carboxymethylcellulose (CMC)): 196 % of control | T/C (dose: 25.0 mg/kg/injection, schedule: Q01DX001 (ip), vehicle: other): 220 % of control | T/C (dose: 25.0 mg/kg/injection, schedule: Q01DX001 (oral), vehicle: other): 210 % of control | T/C (dose: 25.0 mg/kg/injection, schedule: Q01DX001 (sc), vehicle: other): 227 % of control | T/C (dose: 25.0 mg/kg/injection, schedule: Q03HX008 (ip), vehicle: carboxymethylcellulose (CMC)): 107 % of control | T/C (dose: 25.0 mg/kg/injection, schedule: Q03HX008 (oral), vehicle: carboxymethylcellulose (CMC)): 155 % of control | T/C (dose: 25.0 mg/kg/injection, schedule: Q03HX024 (oral), vehicle: carboxymethylcellulose (CMC)): 150 % of control | T/C (dose: 25.0 mg/kg/injection, schedule: Q03HX040 (ip), vehicle: carboxymethylcellulose (CMC)): 114 % of control | T/C (dose: 25.0 mg/kg/injection, schedule: Q04DX005 (ip), vehicle: carboxymethylcellulose (CMC)): 186 % of control | T/C (dose: 26.0 mg/kg/injection, schedule: Q01DX001 (ip), vehicle: carboxymethylcellulose (CMC)): 162 % of control | T/C (dose: 29.0 mg/kg/injection, schedule: Q01DX001 (ip), vehicle: other): 180 % of control and 240 % of control | T/C (dose: 29.25 mg/kg/injection, schedule: Q01DX001 (oral), vehicle: other): 156 % of control and 160 % of control | T/C (dose: 29.25 mg/kg/injection, schedule: Q## X001 (oral), vehicle: other): 196 % of control | T/C (dose: 30.0 mg/kg/injection, schedule: Q01DX001 (oral), vehicle: other): 229 % of control | T/C (dose: 32.0 mg/kg/injection, schedule: Q01DX009 (ip), vehicle: carboxymethylcellulose (CMC)): 196 % of control | T/C (dose: 32.0 mg/kg/injection, schedule: Q01DX009 (oral), vehicle: carboxymethylcellulose (CMC)): 187 % of control | T/C (dose: 32.4 mg/kg/injection, schedule: Q01DX001 (ip), vehicle: carboxymethylcellulose (CMC)): 109 % of control | T/C (dose: 35.0 mg/kg/injection, schedule: Q## X032 (ip), vehicle: other): 158 % of control | T/C (dose: 40.0 mg/kg/injection, schedule: Q01DX001 (ip), vehicle: carboxymethylcellulose (CMC)): 191 % of control | T/C (dose: 50.0 mg/kg/injection, schedule: Q01DX001 (ip), vehicle: saline): 242 % of control | T/C (dose: 50.0 mg/kg/injection, schedule: Q01DX009 (oral), vehicle: carboxymethylcellulose (CMC)): 200 % of control | T/C (dose: 50.0 mg/kg/injection, schedule: Q04DX005 (ip), vehicle: carboxymethylcellulose (CMC)): 230 % of control | T/C (dose: 50.0 mg/kg/injection, schedule: Q07DX Z (ip), vehicle: other): 223 % of control | T/C (dose: 50.0 mg/kg/injection, schedule: Q## X009 (ip), vehicle: carboxymethylcellulose (CMC)): 190 % of control | T/C (dose: 53.0 mg/kg/injection, schedule: Q## X032 (ip), vehicle: other): 121 % of control | T/C (dose: 54.0 mg/kg/injection, schedule: Q01DX001 (ip), vehicle: carboxymethylcellulose (CMC)): 115 % of control | T/C (dose: 64.0 mg/kg/injection, schedule: Q01DX005 (ip), vehicle: carboxymethylcellulose (CMC)): 119 % of control | T/C (dose: 64.0 mg/kg/injection, schedule: Q01DX009 (ip), vehicle: carboxymethylcellulose (CMC)): 123 % of control | T/C (dose: 64.0 mg/kg/injection, schedule: Q01DX009 (oral), vehicle: carboxymethylcellulose (CMC)): 106 % of control | T/C (dose: 64.0 mg/kg/injection, schedule: Q04DX003 (ip), vehicle: carboxymethylcellulose (CMC)): 118 % of control | T/C (dose: 66.0 mg/kg/injection, schedule: Q## X004 (ip), vehicle: other): 191 % of control | T/C (dose: 88.0 mg/kg/injection, schedule: Q01DX001 (oral), vehicle: other): 167 % of control | T/C (dose: 90.0 mg/kg/injection, schedule: Q01DX001 (ip), vehicle: carboxymethylcellulose (CMC)): 242 % of control | T/C (dose: 100.0 mg/kg/injection, schedule: Q01DX001 (ip), vehicle: carboxymethylcellulose (CMC)): 227 % of control | T/C (dose: 100.0 mg/kg/injection, schedule: Q01DX001 (ip), vehicle: other): 225 % of control | T/C (dose: 100.0 mg/kg/injection, schedule: Q01DX001 (oral), vehicle: carboxymethylcellulose (CMC)): 245 % of control | T/C (dose: 100.0 mg/kg/injection, schedule: Q01DX001 (oral), vehicle: other): 190 % of control | T/C (dose: 100.0 mg/kg/injection, schedule: Q01DX001 (sc), vehicle: other): 221 % of control | T/C (dose: 100.0 mg/kg/injection, schedule: Q01DX005 (ip), vehicle: carboxymethylcellulose (CMC)): 108 % of control | T/C (dose: 100.0 mg/kg/injection, schedule: Q01DX017 (ip), vehicle: carboxymethylcellulose (CMC)): 118 % of control | T/C (dose: 100.0 mg/kg/injection, schedule: Q04DX003 (oral), vehicle: carboxymethylcellulose (CMC)): 194 % of control | T/C (dose: 100.0 mg/kg/injection, schedule: Q## X006 (oral), vehicle: carboxymethylcellulose (CMC)): 161 % of control | T/C (dose: 100.0 mg/kg/injection, schedule: Q## X009 (ip), vehicle: carboxymethylcellulose (CMC)): 111 % of control | T/C (dose: 117.0 mg/kg/injection, schedule: Q01DX001 (oral), vehicle: other): 105 % of control | T/C (dose: 117.0 mg/kg/injection, schedule: Q## X001 (oral), vehicle: other): 122 % of control | T/C (dose: 128.0 mg/kg/injection, schedule: Q01DX001 (ip), vehicle: carboxymethylcellulose (CMC)): 104 % of control | T/C (dose: 128.0 mg/kg/injection, schedule: Q01DX001 (oral), vehicle: carboxymethylcellulose (CMC)): 245 % of control | T/C (dose: 128.0 mg/kg/injection, schedule: Q01DX005 (ip), vehicle: carboxymethylcellulose (CMC)): 93 % of control | T/C (dose: 187.0 mg/kg/injection, schedule: Q01DX001 (ip), vehicle: carboxymethylcellulose (CMC)): 224 % of control | T/C (dose: 200.0 mg/kg/injection, schedule: Q01DX001 (ip), vehicle: carboxymethylcellulose (CMC)): 94 % of control and 111 % of control | T/C (dose: 200.0 mg/kg/injection, schedule: Q01DX001 (ip), vehicle: other): 118 % of control | T/C (dose: 200.0 mg/kg/injection, schedule: Q01DX001 (iv), vehicle: other): 183 % of control | T/C (dose: 200.0 mg/kg/injection, schedule: Q01DX001 (oral), vehicle: carboxymethylcellulose (CMC)): 122 % of control | T/C (dose: 200.0 mg/kg/injection, schedule: Q04DX005 (ip), vehicle: carboxymethylcellulose (CMC)): 96 % of control | T/C (dose: 256.0 mg/kg/injection, schedule: Q01DX001 (sc), vehicle: carboxymethylcellulose (CMC)): 109 % of control | T/C (dose: 400.0 mg/kg/injection, schedule: Q01DX001 (ip), vehicle: other): 107 % of control | T/C (dose: 125.0 micrograms/kg/injection, schedule: Q03HX024 (ip), vehicle: carboxymethylcellulose (CMC)): 114 % of control | T/C (dose: 250.0 micrograms/kg/injection, schedule: Q03HX024 (ip), vehicle: carboxymethylcellulose (CMC)): 165 % of control | T/C (dose: 2000.0 micrograms/kg/injection, schedule: Q03HX008 (ip), vehicle: carboxymethylcellulose (CMC)): 253 % of control
